Experimental data reported in ChEMBL document CHEMBL1129440, “The use of topographical constraints in receptor mapping: investigation of the topographical requirements of the tryptophan 30 residue for receptor binding of Asp-Tyr-D-Phe-Gly-Trp-(N-Me)Nle-Asp-Phe-NH2 (SNF 9007), a cholecystokinin (26-33) analogue that binds to both CCK-B and delta-opioid …” (J Med Chem, 1996).

Key:
[1] = molecular target: T1, Cholecystokinin receptor type A (Cavia porcellus, UniProt Q63931); assay: Binding affinity towards Cholecystokinin type A receptor was determined in guinea pig pancreatic membranes using [125I]-BH-CCK-8 as radioligand; format: cell membranes
T1 sequence (Q63931 whole entry): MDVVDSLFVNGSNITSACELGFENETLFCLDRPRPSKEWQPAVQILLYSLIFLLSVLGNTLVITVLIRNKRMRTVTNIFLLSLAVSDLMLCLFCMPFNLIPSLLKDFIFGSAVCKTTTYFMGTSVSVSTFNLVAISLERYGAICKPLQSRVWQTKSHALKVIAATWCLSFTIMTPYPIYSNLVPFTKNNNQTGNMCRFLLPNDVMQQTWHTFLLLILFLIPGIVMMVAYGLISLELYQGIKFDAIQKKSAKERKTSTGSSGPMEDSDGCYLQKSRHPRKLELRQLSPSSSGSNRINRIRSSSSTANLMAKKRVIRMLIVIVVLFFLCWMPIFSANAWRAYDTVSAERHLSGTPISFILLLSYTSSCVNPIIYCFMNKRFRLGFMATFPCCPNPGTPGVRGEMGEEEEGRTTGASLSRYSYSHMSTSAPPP

Mu-type opioid receptor = Mu-type opioid receptor (Cavia porcellus, UniProt P97266); assay: Binding affinity towards Opioid receptor mu 1 was determined in guinea pig whole brain using [3H]CTOP radioligand
Sequence of Mu-type opioid receptor (P97266 whole entry): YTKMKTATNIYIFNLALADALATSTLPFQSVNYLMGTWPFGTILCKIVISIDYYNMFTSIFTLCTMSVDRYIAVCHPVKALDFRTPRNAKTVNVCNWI

| SMILES | IC50 ([1]; read-out: IC50) [µM] | IC50 (Mu-type opioid receptor) [µM] | IC50 [1] |
| --- | --- | --- | --- |
| CCCC[C@@H](C(=O)N[C@@H](CC(=O)O)C(=O)N[C@@H](Cc1ccccc1)C(N)=O)N(C)C(=O)[C@H](NC(=O)CNC(=O)[C@@H](Cc1ccccc1)NC(=O)[C@H](Cc1ccc(O)cc1)NC(=O)[C@@H](N)CC(=O)O)[C@@H](C)c1c[nH]c2ccccc12 | 8.6 | > 30 |  |
| CCCC[C@@H](C(=O)N[C@@H](CC(=O)O)C(=O)N[C@@H](Cc1ccccc1)C(N)=O)N(C)C(=O)[C@@H](NC(=O)CNC(=O)[C@@H](Cc1ccccc1)NC(=O)[C@H](Cc1ccc(O)cc1)NC(=O)[C@@H](N)CC(=O)O)[C@H](C)c1c[nH]c2ccccc12 | 1 | 3.05 |  |
| CCCC[C@@H](C(=O)N[C@@H](CC(=O)O)C(=O)N[C@@H](Cc1ccccc1)C(N)=O)N(C)C(=O)[C@H](NC(=O)CNC(=O)[C@@H](Cc1ccccc1)NC(=O)[C@H](Cc1ccc(O)cc1)NC(=O)[C@@H](N)CC(=O)O)[C@H](C)c1c[nH]c2ccccc12 | 8.6 | > 30 |  |
| CCCC[C@@H](C(=O)N[C@@H](CC(=O)O)C(=O)N[C@@H](Cc1ccccc1)C(N)=O)N(C)C(=O)[C@@H](NC(=O)CNC(=O)[C@@H](Cc1ccccc1)NC(=O)[C@H](Cc1ccc(O)cc1)NC(=O)[C@@H](N)CC(=O)O)[C@@H](C)c1c[nH]c2ccccc12 | > 1.2 | 6.8 |  |
| CCCC[C@@H](C(=O)N[C@@H](CC(=O)O)C(=O)N[C@@H](Cc1ccccc1)C(N)=O)N(C)C(=O)[C@H](Cc1c[nH]c2ccccc12)NC(=O)CNC(=O)[C@@H](Cc1ccccc1)NC(=O)[C@H](Cc1ccc(O)cc1)NC(=O)[C@@H](N)CC(=O)O | > 12 | 0.7 |  |
| CC1(C)SSC(C)(C)[C@H](C(=O)O)NC(=O)C(Cc2ccccc2)NC(=O)CNC(=O)C1NC(=O)[C@@H](N)Cc1ccc(O)cc1 (single isomer, unassigned) |  |  | Not Active |
